Laboratory results published in patent US4335249A, “Herbicidal diphenyl ethers, sulfides, sulfoxides and sulfones” (Rohm and Haas Company, priority 1976, dated 1982).

Legend:
Format in all cases: in vivo
[1] = test system: barnyardgrass (Echinochloa crusgalli); experiment: Postemergence herbicidal activity, barnyardgrass; details: Echinochloa crus-galli, post-emergence, 336 h; Post, 2 lb/A
Method: (§1) Using the procedure described below, compounds of the invention are evaluated for control of several of the following plant species:
(§2) The following est procedure is employed. Seeds of selected crops and weeds are planted in soil in flats. For preemergence tests, the flats are treated with the test compound immediately after the planting. For postemergence tests, the seeds are allowed to germinate, and after two weeks the flats are treated with the test compound. The compound to be evaluated is dissolved in acetone, diluted with water, and sprayed over the flats using a carrier volume equivalent to 50 gallons per acre at the rate of application (pounds per acre, lb/A.) specified in the tables.

[2] = test system: morningglory (Ipomoca spp.); experiment: Preemergence herbicidal activity, morningglory; details: Ipomoea, pre-emergence, 336 h, 2 lb/A
Method: as §1
as §2, with “tables. About two weeks after the application of the test compound, the state of growth of the plants is observed and the phytotoxic effect of the compound is evaluated. Tables III and IV give the average percent control achieved by test compounds in terms of the percent of the plants which are killed by the compounds.” for “tables.”

[3] = test system: foxtail (Setaria spp.); experiment: Postemergence herbicidal activity, foxtail; details: Setaria, post-emergence, 336 h, Post, 2 lb/A
Method: as §1
as §2, with “tables. About two weeks after the application of the test compound, the state of growth of the plants is observed and the phytotoxic effect of the compound is evaluated. Tables III and IV give the average percent control achieved by test compounds in terms of the percent of the plants which are killed by the compounds.” for “tables.”

[4] = test system: cocklebur (Xanthium pensylvanicum); experiment: Postemergence herbicidal activity, cocklebur; details: Xanthium strumarium, post-emergence, 336 h, 2 lb/A
Method: as §1
as §2, with “tables. About two weeks after the application of the test compound, the state of growth of the plants is observed and the phytotoxic effect of the compound is evaluated. Tables III and IV give the average percent control achieved by test compounds in terms of the percent of the plants which are killed by the compounds.” for “tables.”

[5] = test system: barnyardgrass (Echinochloa crusgalli); experiment: Preemergence herbicidal activity, barnyardgrass; details: Echinochloa crus-galli, pre-emergence, 336 h; Pre, 2 lb/A
Method: as §1, §2

[6] = test system: downybrome (Bromus tectorum); experiment: Preemergence herbicidal activity, downybrome; details: Bromus tectorum, pre-emergence, 336 h, Pre, 2 lb/A
Method: as §1
as §2, with “tables. About two weeks after the application of the test compound, the state of growth of the plants is observed and the phytotoxic effect of the compound is evaluated. Tables III and IV give the average percent control achieved by test compounds in terms of the percent of the plants which are killed by the compounds.” for “tables.”

[7] = test system: marigold (Tagetes spp.); experiment: Postemergence herbicidal activity, marigold; details: post-emergence, 336 h, 2 lb/A
Method: as §1
as §2, with “tables. About two weeks after the application of the test compound, the state of growth of the plants is observed and the phytotoxic effect of the compound is evaluated. Tables III and IV give the average percent control achieved by test compounds in terms of the percent of the plants which are killed by the compounds.” for “tables.”

[8] = test system: morningglory (Ipomoca spp.); experiment: Postemergence herbicidal activity, morningglory; details: Ipomoea, post-emergence, 336 h, 2 lb/A
Method: as §1
as §2, with “tables. About two weeks after the application of the test compound, the state of growth of the plants is observed and the phytotoxic effect of the compound is evaluated. Tables III and IV give the average percent control achieved by test compounds in terms of the percent of the plants which are killed by the compounds.” for “tables.”

[9] = test system: downybrome (Bromus tectorum); experiment: Postemergence herbicidal activity, downybrome; details: Bromus tectorum, post-emergence, 336 h, Post, 2 lb/A
Method: as §1
as §2, with “tables. About two weeks after the application of the test compound, the state of growth of the plants is observed and the phytotoxic effect of the compound is evaluated. Tables III and IV give the average percent control achieved by test compounds in terms of the percent of the plants which are killed by the compounds.” for “tables.”

[10] = test system: tomato (Lycopersicon esculentum); experiment: Postemergence herbicidal activity, tomato; details: Solanum lycopersicum, post-emergence, 336 h, Post, 2 lb/A
Method: as §1
as §2, with “tables. About two weeks after the application of the test compound, the state of growth of the plants is observed and the phytotoxic effect of the compound is evaluated. Tables III and IV give the average percent control achieved by test compounds in terms of the percent of the plants which are killed by the compounds.” for “tables.”

[11] = test system: tomato (Lycopersicon esculentum); experiment: Preemergence herbicidal activity, tomato; details: Solanum lycopersicum, pre-emergence, 336 h; Pre, 2 lb/A
Method: as §1
as §2, with “tables. About two weeks after the application of the test compound, the state of growth of the plants is observed and the phytotoxic effect of the compound is evaluated. Tables III and IV give the average percent control achieved by test compounds in terms of the percent of the plants which are killed by the compounds.” for “tables.”

[12] = test system: velvetleaf (Abutilon theophrasti); experiment: Preemergence herbicidal activity, velvetleaf; details: Abutilon theophrasti, pre-emergence, 336 h; Pre, 2 lb/A
Method: as §1
as §2, with “tables. About two weeks after the application of the test compound, the state of growth of the plants is observed and the phytotoxic effect of the compound is evaluated. Tables III and IV give the average percent control achieved by test compounds in terms of the percent of the plants which are killed by the compounds.” for “tables.”

[13] = test system: cocklebur (Xanthium pensylvanicum); experiment: Preemergence herbicidal activity, cocklebur; details: Xanthium strumarium, pre-emergence, 336 h, 2 lb/A
Method: as §1
as §2, with “tables. About two weeks after the application of the test compound, the state of growth of the plants is observed and the phytotoxic effect of the compound is evaluated. Tables III and IV give the average percent control achieved by test compounds in terms of the percent of the plants which are killed by the compounds.” for “tables.”

[14] = test system: wild oats (Avena fatua); experiment: Preemergence herbicidal activity, wild oats; details: Avena fatua, pre-emergence, 336 h, Pre, 2 lb/A; read-out: % control, Wild oat
Method: as §1
as §2, with “tables. About two weeks after the application of the test compound, the state of growth of the plants is observed and the phytotoxic effect of the compound is evaluated. Tables III and IV give the average percent control achieved by test compounds in terms of the percent of the plants which are killed by the compounds.” for “tables.”

[15] = test system: marigold (Tagetes spp.); experiment: Preemergence herbicidal activity, marigold; details: pre-emergence, 336 h, 2 lb/A
Method: as §1
as §2, with “tables. About two weeks after the application of the test compound, the state of growth of the plants is observed and the phytotoxic effect of the compound is evaluated. Tables III and IV give the average percent control achieved by test compounds in terms of the percent of the plants which are killed by the compounds.” for “tables.”

[16] = test system: wild oats (Avena fatua); experiment: Postemergence herbicidal activity, wild oats; details: Avena fatua, post-emergence, 336 h, Post, 2 lb/A; read-out: % control, Wild oat
Method: as §1
as §2, with “tables. About two weeks after the application of the test compound, the state of growth of the plants is observed and the phytotoxic effect of the compound is evaluated. Tables III and IV give the average percent control achieved by test compounds in terms of the percent of the plants which are killed by the compounds.” for “tables.”

[17] = test system: yellow nutsedge (Cyperus esculentus); experiment: Postemergence herbicidal activity, yellow nutsedge; details: Cyperus, post-emergence, 336 h, 2 lb/A
Method: as §1
as §2, with “tables. About two weeks after the application of the test compound, the state of growth of the plants is observed and the phytotoxic effect of the compound is evaluated. Tables III and IV give the average percent control achieved by test compounds in terms of the percent of the plants which are killed by the compounds.” for “tables.”

[18] = test system: yellow nutsedge (Cyperus esculentus); experiment: Preemergence herbicidal activity, yellow nutsedge; details: Cyperus, pre-emergence, 336 h, 2 lb/A
Method: as §1
as §2, with “tables. About two weeks after the application of the test compound, the state of growth of the plants is observed and the phytotoxic effect of the compound is evaluated. Tables III and IV give the average percent control achieved by test compounds in terms of the percent of the plants which are killed by the compounds.” for “tables.”

[19] = test system: foxtail (Setaria spp.); experiment: Preemergence herbicidal activity, foxtail; details: Setaria, pre-emergence, 336 h; Pre, 2 lb/A
Method: as §1
as §2, with “tables. About two weeks after the application of the test compound, the state of growth of the plants is observed and the phytotoxic effect of the compound is evaluated. Tables III and IV give the average percent control achieved by test compounds in terms of the percent of the plants which are killed by the compounds.” for “tables.”

[20] = test system: velvetleaf (Abutilon theophrasti); experiment: Postemergence herbicidal activity, velvetleaf; details: Abutilon theophrasti, post-emergence, 336 h, 2 lb/A
Method: as §1, §2

SMILES	pest or weed control at 2241.7 g/ha [1] [%]	pest or weed control at 2241.7 g/ha [2] [%]	pest or weed control at 2241.7 g/ha [3] [%]	pest or weed control at 2241.7 g/ha [4] [%]	pest or weed control at 2241.7 g/ha [5] [%]	pest or weed control at 2241.7 g/ha [6] [%]	pest or weed control at 2241.7 g/ha [7] [%]	pest or weed control at 2241.7 g/ha [8] [%]	pest or weed control at 2241.7 g/ha [9] [%]	pest or weed control at 2241.7 g/ha [10] [%]	pest or weed control at 2241.7 g/ha [11] [%]	pest or weed control at 2241.7 g/ha [12] [%]	pest or weed control at 2241.7 g/ha [13] [%]	pest or weed control at 2241.7 g/ha [14] [%]	pest or weed control at 2241.7 g/ha [15] [%]	pest or weed control at 2241.7 g/ha [16] [%]	pest or weed control at 2241.7 g/ha [17] [%]	pest or weed control at 2241.7 g/ha [18] [%]	pest or weed control at 2241.7 g/ha [19] [%]	pest or weed control at 2241.7 g/ha [20] [%]
CCCCOC(=O)C(C)Oc1ccc(Oc2ccc(C(F)(F)F)cc2Cl)cc1 (stereo not drawn) [Example 23]	100	0	100	0	100	99	30	20	99	99	0	0	0	80	0	100	0	30	100	40
COCCOC(=O)C(C)Oc1ccc(Oc2ccc(C(F)(F)F)cc2Cl)cc1 (stereo not drawn) [Example 25]	100	0	100	20	100	95	30	40	80	95	0	0	0	70	0	100	40	30	100	60
CC(C#N)Oc1ccc(Oc2ccc(C(F)(F)F)cc2Cl)cc1 (stereo not drawn) [Example 19, 2-[4-(2-chloro-4-trifluoromethylphenoxy)phenoxy] propionitrile]	99	0	99	0	100	20	0	0	30	0	0	0	0	30	0	90	0	0	100	0
